Series [1] concerns BKII (recombinant butyrate kinase derived from Acetoanaerobium sticklandii). As to the kind of experiment: Substrate specificity of butyrate kinase BKII. The class given is biochemical. To be noted: 100 mM sodium salt of fatty acid in second reagent, pH 7.5. How it is done: (§1) Various fatty acids shown in Table 1 were used as a substrate. The measurement was performed using a 7180 type Hitachi automatic analyzer (Hitachi High-Tech Corporation). […] PHARMA CORPORATION) • 5 U/mL ADP-HK II (ADP dependent hexokinase: […] PHARMA CORPORATION) […] In the composition of the second reagent, “sodium salts of various fatty acids” means any one kind of sodium caprylate, sodium caproate, sodium valerate, sodium isovalerate, sodium butyrate, sodium isobutyrate, sodium propionate, sodium acetate, sodium lactate, and sodium succinate. Isobutyric acid, valeric acid, isovaleric acid, caproic acid, and octanoic acid, which are commercially available fatty acids and are not sold as sodium salts, were adjusted to pH 7.5 with sodium hydroxide. […] [Measurement Parameters of Automatic Analyzer] • Analysis method: […]

Series [2] concerns BKIII (recombinant butyrate kinase derived from Thermosediminibacter oceani). As to the kind of experiment: Substrate specificity of butyrate kinase BKIII. To be noted: 100 mM sodium salt of fatty acid in second reagent, pH 7.5. The class given is biochemical. How it is done:
as §1

For a further series, the target named is T1, acetate kinase (AK) (Escherichia coli, UniProt P0A6A3).
T1 construct: purchased Sigma-Aldrich Co. LLC
Put plainly: Comparative Example 1: measurement using acetate kinase, reaction recovery rate. Type of series: biochemical, E. coli. To be noted: 5 mM substrate. How it is done:
(§2) It was examined whether butyric acid could be measured by using acetate kinase (AK) or propionic acid kinase (PK) instead of butyrate kinase. For comparison, measurement using BKIII was also performed.
(§3) Neutralized 100 mM acetic acid, butyric acid, and isobutyric acid were mixed with physiological saline to prepare a 5 mM acetic acid aqueous solution, a 5 mM butyric acid aqueous solution, and a 5 mM isobutyric acid aqueous solution, respectively.
(§4) The composition of the first reagent was the same as that of the first reagent used for examining the substrate specificity of Reference Example 7.
(§5) AK (Sigma-Aldrich Co. LLC., derived from E. coli), PK (MyBioSource, recombinant protein) and BKIII were added to 100 mM Tris-HCl (pH 7.5) (Sigma-Aldrich Co. LLC.), respectively, to prepare an enzyme solution containing each enzyme at a concentration of 1.25 to 40 U/mL.
(§6) The measurement was performed using a 7180 type Hitachi automatic analyzer (Hitachi High-Tech Corporation). The measurement parameters of the automatic analyzer were the same as in Example 2.
(§7) In the same manner as in Example 2, butyric acid and isobutyric acid in the sample were measured by the automatic analyzer. The reaction recovery rate (%) was calculated by dividing the measured value by the theoretical absorbance value. The theoretical absorbance is the absorbance when all the substrate (butyric acid or isobutyric acid) in the sample is converted to NADPH, and is calculated by the following formula. […] (Theoretical absorbance)= (substrate concentration in sample)×[(sample volume)/(sample volume+ first reagent amount+second reagent amount)]×(NADPH millimole molecular extinction coefficient at 340 nm)= 5×[3.5/(3.5+140+35)]×6.3= 0.617

Series [3] has as its system propionic acid kinase (PK). Put plainly: Comparative Example 1: measurement using propionic acid kinase, reaction recovery rate. Type of series: biochemical. To be noted: 5 mM substrate. The method, then: as §2, §3, §4, §5, §6, §7
The subject of the next series is BKIII. Put plainly: Comparative Example 1: measurement using BKIII, reaction recovery rate. Type of series: biochemical, Thermosediminibacter oceani. The following applies: 5 mM substrate. The method, then:
as §2, §3, §4, §5, §6, §7

Series [4] concerns butyrate-acetoacetate-CoA transferase (EC 2.8.3.9). Put plainly: Comparative Example 3: measurement using butyrate-acetoacetate-CoA transferase, reaction recovery rate. The following applies: 60 μg/mL butyrate-acetoacetate-CoA transferase in second reagent; 5 mM substrate. The class given is biochemical, E. coli. The method, then: It was examined whether acetic acid and butyric acid could be measured by the reaction of formula (12), which is the reverse reaction of the formula (11), using butyrate-[…] transferase instead of butyrate kinase. […] The measurement was performed using a 7180 type Hitachi automatic analyzer (Hitachi High-Tech Corporation). […] LLC.) • 0.35 mM Acetoacetyl-CoA (Sigma-Aldrich Co. LLC.) • 2 mM MgCl2 (FUJIFILM Wako Pure Chemical Corporation) • 0.25 mM β-NADH (Oriental Yeast Co., Ltd.) • 5 U/mL 3-hydroxybutyrate dehydrogenase (FUJIFILM Wako Pure Chemical Corporation) […] LLC.) The measurement was performed using a 7180 type Hitachi automatic analyzer (Hitachi High-Tech Corporation). The measurement parameters of the automatic analyzer were the same as in Example 2.

The nature of series [5]: Measurement of recombinant butyrate kinase activity (ADP-HK/G6PDH coupled, NADPH at 340 nm); specific activity, Km and Vmax. Type of series: biochemical. To be noted: with respect to butyric acid. How it is done: The enzymatic activity of BKII and BKIII with respect to butyric acid was measured based on the amount of ADP produced. In the Example 1, ADP produced by the action of butyrate kinase is used to produce NADPH by the action of ADP dependent hexokinase and glucose-6-phosphate dehydrogenase (see FIG. 1), and the amount of ADP produced was measured based on the change in absorbance at 340 nm due to the increase in NADPH. The measurement was performed using a 7080 type Hitachi automatic analyzer (Hitachi High-Tech Corporation).
[Composition of First Reagent] • 50 mM Tris-HCl (pH 7.5) (Sigma-Aldrich Co. LLC.) • 2 mM ATP (pH 7.5) (Oriental Yeast Co., Ltd.) • 2 mM MgCl2 (FUJIFILM Wako Pure Chemical Corporation) • 20 mM glucose (FUJIFILM Wako Pure Chemical Corporation) • 100 mM sodium butyrate (FUJIFILM Wako Pure Chemical Corporation) • 1 mM NADP (FUJIFILM Wako Pure Chemical Corporation) • 5 U/mL G6PDH II (Glucose-6-phosphate dehydrogenase: T-51, ASAHI KASEI PHARMA CORPORATION) • 5 U/mL ADP-HK II (ADP dependent hexokinase: T-92, ASAHI KASEI PHARMA CORPORATION) • 0.1% TN-100 (ADEKA Corporation)
[Composition of BKII Diluent] • 50 mM Tris-HCl (pH 7.5) (Sigma-Aldrich Co. LLC.) • 10 mM KCl (FUJIFILM Wako Pure Chemical Corporation)
[Composition of BKIII Diluent] • 50 mM Potassium phosphate buffer (pH 7.0) (Sigma-Aldrich Co. LLC.) • 0.1% TN-100 (ADEKA Corporation)
[Measurement Parameters of Automatic Analyzer] • Analysis method: Rate-A • Measurement wavelength (secondary/primary): 700 nm/340 nm • Reaction time: 5 minutes • Photometry point: 11 to 16 • Sample volume: 3 μL • First reagent amount: 150 μL […]
The sample was dispensed into a cuvette, then the first reagent was added and stirred. […] The cuvette was irradiated with light and the change in absorption at 340 nm was measured between about 200 seconds and about 296 seconds after the addition of the first reagent. […] The activity value (U/mL) of butyrate kinase was calculated from the following formula by defining the amount of enzyme that phosphorylates 1 μmol of butyric acid per minute as 1 U and using the value of the absorbance change per minute (ΔmAbs/min) calculated from the absorbance at the photometry point and the millimole extinction coefficient (c=6.3) of […] at 340 nm. […]
The specific activity (U/mg) is the activity value per 1 mg of enzyme. The protein (enzyme) concentrations of the BKII solution obtained in Reference Example 1 and the BKIII solution obtained in Reference Example 3 were quantified by the Bradford method, and the specific activities of BKII and BKIII with respect to butyric acid under the measurement conditions of Example 1 were calculated. […]
The Km and Vmax of BKII and BKIII with respect to butyric acid under the measurement conditions of Example 1 were determined by Lineweaver-Burk plot.

The nature of series [6]: Thermal stability of recombinant butyrate kinase (remaining activity). The class given is physicochemical. The following applies: after treatment at 37° C. for 30 minutes; 10 mM Tris-HCl pH 7.5, 100 mM KCl. The method, then:
The thermal stability of BKII was examined based on the remaining activity after incubating approximately 0.3 mg/mL BKII at each temperature of 4 to 50° C. for 30 minutes in 10 mM Tris-HCl buffer (pH 7.5) containing 100 mM KCl. The thermal stability of BKIII was examined based on the remaining activity after incubating approximately 1 mg/mL BKIII in 50 mM potassium phosphate buffer (pH 7) containing 0.1% TN-100 (ADEKA Corporation) at each temperature of 4 to 80° C. for 30 minutes. The remaining activity was measured in the same manner as in Example 1. From FIGS. 12 and 13, the thermal stability (remaining activity) of BKII was 50% or more after treatment at 37° C. for 30 minutes, and the thermal stability (remaining activity) of BKIII was 85% or more after treatment at 70° C. for 30 minutes.
The thermal stability of BKIII, Thermosediminibacter oceani-derived butyrate kinase (ToBK2) prepared in Reference Example 4, Natranaerobius thermophilus-derived butyrate kinase (NtBK) prepared in Reference Example 5, and Symbiobacterium thermophilum-derived butyrate kinase (StBK) prepared in Reference Example 6 were compared. Specifically, each butyrate kinase was added to a 50 mM potassium phosphate buffer (pH 7) containing 0.1% TN-100 so that the concentration is about 1 mg/mL, and the remaining activity after incubating at 65° C. for 30 minutes was measured. The remaining activity was measured in the same manner as in Example 1.

2 molecules from patent publication US11773379B2, “Enzymes and reagents for measurement of short chain fatty acids” (SYSMEX CORPORATION, priority 2018, dated 2023) can be followed below.

T1 sequence (P0A6A3 whole entry): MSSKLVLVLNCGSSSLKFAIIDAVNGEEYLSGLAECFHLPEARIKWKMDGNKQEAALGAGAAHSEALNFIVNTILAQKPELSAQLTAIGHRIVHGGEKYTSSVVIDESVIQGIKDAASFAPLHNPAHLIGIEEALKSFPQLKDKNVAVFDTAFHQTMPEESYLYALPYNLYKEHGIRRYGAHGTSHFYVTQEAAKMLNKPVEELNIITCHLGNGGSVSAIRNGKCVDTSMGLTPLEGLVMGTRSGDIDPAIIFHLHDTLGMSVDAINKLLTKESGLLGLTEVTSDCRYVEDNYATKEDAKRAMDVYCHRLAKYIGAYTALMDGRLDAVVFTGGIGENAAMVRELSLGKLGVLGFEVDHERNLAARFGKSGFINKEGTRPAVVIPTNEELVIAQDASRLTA

With `CC(=O)O` [Acetic acid], the “substrate specificity, relative value when the activity value with respect to butyric acid is 100” value in series [1] and in series [2] was 1% each time. Moreover, the reaction recovery rate on acetate kinase (AK) (AK activity value in reaction mixed solution 0.3 U/mL) was 16%; on acetate kinase (AK) (AK activity value in reaction mixed solution 0.5 U/mL), 28%; on acetate kinase (AK) (AK activity value in reaction mixed solution 1.0 U/mL) it was 44%; at acetate kinase (AK) (AK activity value in reaction mixed solution 2.0 U/mL), 62%; at acetate kinase (AK) (AK activity value in reaction mixed solution 4.0 U/mL), 78%; at acetate kinase (AK) (AK activity value in reaction mixed solution 8.0 U/mL) it was 88%. Moreover, the reaction recovery rate in series [3] (PK activity value in reaction mixed solution 0.3 U/mL) is given as 0%; in series [3] (PK activity value in reaction mixed solution 0.5 U/mL) it was 2%; in series [3] (PK activity value in reaction mixed solution 1.0 U/mL), 3%; in series [3] (PK activity value in reaction mixed solution 2.0 U/mL), 9%; in series [3] (PK activity value in reaction mixed solution 4.0 U/mL) it was 21%; in series [3] (PK activity value in reaction mixed solution 8.0 U/mL) it was 39%. In addition, the reaction recovery rate with BKIII (BKIII activity value in reaction mixed solution 0.3 U/mL) amounted to 0%; in the series with BKIII (BKIII activity value in reaction mixed solution 0.5 U/mL) it was 0%; with BKIII (BKIII activity value in reaction mixed solution 1.0 U/mL), 0%; in the series on BKIII (BKIII activity value in reaction mixed solution 2.0 U/mL), 0%; with BKIII (BKIII activity value in reaction mixed solution 4.0 U/mL), 1%; with BKIII (BKIII activity value in reaction mixed solution 8.0 U/mL), 2%. In addition, the “Reaction recovery rate (%)” value in series [4] is listed as 1%.

B1: BKII: recombinant butyrate kinase derived from Acetoanaerobium sticklandii obtained in Reference Example 1 (T7 tag and His tag; SEQ ID NO: 17) (protein, listed as Acetoanaerobium sticklandii)
chain: MEGTMSTYKILAINPGSTSTKIAVYENETQIMEKTLRHSTEEINKYEKIFDQFEFRKNVIVDAVSEAGIAIEELDAVVGRGGLLKPIKGGTYEVSDELIAGLKEPYLGEHASNLGGIIAKEIADAALAPSFIVDPVVVDEMNDVARISGMPEIPRFSIFHALNQKATARRFASEIGKSYEDINVIVAHMGGGVSVGAHEKGRVIDVNNALDGEGPFSPERAGGLPVGDLAKLCFSGKYTHAQIKKLLKGEGGIVAYLGTNDARDVEKMIAEGDEKAKLIYEAMAYQVAKEIGSCATVLKGKVDAIILTGGIAYSEMITTWIKERVSFIADVKIYAGEDEMSALAQGALRVLREEEKPQRYEA
modifications: T7 tag and His tag
What is called Km is the concentration of substrate that gives half-maximal velocity. In the case of B1, the “activity value of butyrate kinase” value in series [5] (enzyme solution, 37° C., Tris-HCl pH 7.5) is reported as “about 340 U/mL”. Besides, in series [5] (Lineweaver-Burk plot), the Km was determined as 4.2 mM and the Vmax worked out at 1100 U/mg. For the same molecule, the specific activity entry in series [5] (measurement conditions of Example 1, protein by Bradford method) is reported as “about 337 U/mg”. Further, the “thermal stability (remaining activity)” value in series [6] is given as at least 50%.
